What was measured:
HepG2 cells = experiment: rtPCR gene expression analysis (TaqMan array card); format: cell-based, human; details: 6 h at IC50 concentration, relative to negative control
Protocol: Target cancer gene pathways were analyzed using a custom Taqman® array card exploring 90 unique genes associated with cancer related pathways (Kanehisa, Goto et al. 2010).
Two million HepG2 cells in IMDM media with 20% FBS, and 1% ethanol were seeded in T75 flasks and incubated at 37° C., 7.5% CO2 until 70-80% confluent (approx. […]). […] Untreated cells were included as a negative control. Glyceraldehyde-3-phosphate dehydrogenase (GAPDH) was included as an endogenous control and used for normalization of the data.
Following a 6-hour incubation with the test compounds, the RNA was extracted using Invitrogen's Dynabead mRNA DIRECT kit using the recommended protocol to provide 50 μL of a purified mRNA solution. Fifty μL of RT master mix was mixed into the mRNA solution and the mixture left to react at 37° C. for 60 minutes. Reverse transcriptase inactivation was performed at 95° C. for 5 minutes and the resulting cDNA samples were kept at 4° C. until use. Fifty-five microliters of TaqMan Fast Advance master mix were added to an equal amount of cDNA sample containing 1 μg/100 μl of cDNA, which was loaded into each card reservoir. The cards were centrifuged twice at 1200 RPM for 3 minutes in a Legend XFR centrifuge and the rtPCR reaction was conducted in a QuantStudio7 PCR instrument using the recommended settings with 40 amplification cycles. Data processing was done using ThermoFisher's Connect™ application.

[1] = Clinical study, patients; cited from earlier work

Compound: CNC(=O)c1cc(Oc2ccc(NC(=O)Nc3ccc(Cl)c(C(F)(F)F)c3)cc2)ccn1 [Sorafenib]
- ΔΔCt VEGFA (HepG2 cells; Angiogenesis): −2.101
- ΔΔCt CAMK1 (HepG2 cells; Ca Signaling): −1.249
- ΔΔCt BAD (HepG2 cells; Cell Cycle): −1.712
- ΔΔCt BAX (HepG2 cells; Cell Cycle): −1.835
- ΔΔCt BCL2L1 (HepG2 cells; Cell Cycle): −1.67
- ΔΔCt BECN1 (HepG2 cells; Cell Cycle): −1.627
- ΔΔCt CCND2 (HepG2 cells; Cell Cycle): −2.012
- ΔΔCt CDK2 (HepG2 cells; Cell Cycle): −1.072
- ΔΔCt CDK4 (HepG2 cells; Cell Cycle): −1.315
- ΔΔCt CDK6 (HepG2 cells; Cell Cycle): −1.273
- ΔΔCt MAX (HepG2 cells; Cell Cycle): −1.278
- ΔΔCt MNT (HepG2 cells; Cell Cycle): −1.155
- ΔΔCt CTNNB1 (HepG2 cells; Cellular Adhesion): −1.355
- ΔΔCt MITF (HepG2 cells; Drug Resistance): −2.782
- ΔΔCt TEAD2 (HepG2 cells; HIPPO): −1.447
- ΔΔCt SMO (HepG2 cells; Hedge Hog signaling): −1.125
- ΔΔCt STAT1 (HepG2 cells; JAK-STAT): −1.284
- ΔΔCt ERBB2 (HepG2 cells; MAP kinase): 2.729
- ΔΔCt MAP1LC3A (HepG2 cells; MAP kinase): −1.658
- ΔΔCt MAP2K2 (HepG2 cells; MAP kinase): −1.241
- ΔΔCt MAP3K1 (HepG2 cells; MAP kinase): −2.162
- ΔΔCt MAPK8 (HepG2 cells; MAP kinase): −1.245
- ΔΔCt RASA1 (HepG2 cells; MAP kinase): −2.013
- ΔΔCt CRK (HepG2 cells; PI3K pathway): −3.778
- ΔΔCt PIK3C2A (HepG2 cells; PI3K pathway): −2.308
- ΔΔCt PIK3CA (HepG2 cells; PI3K pathway): −1.501
- ΔΔCt PTEN (HepG2 cells; PI3K pathway): −1.165
- ΔΔCt SMAD2 (HepG2 cells; TGF signaling): −1.348
- ΔΔCt GSK3B (HepG2 cells; Wnt signaling): −1.105
- ΔΔCt ROCK1 (HepG2 cells; Wnt signaling): −1.495
- Tmax [1]: 2 to 9.5 h
- Total body clearance [1]: 1.83 mL/min/kg
- Volume of distribution [1]: 2.66 L/kg

Source: patent US20260232699A1, “COMPOSITIONS OF A CANNABINOID AND A KINASE INHIBITOR FOR THE TREATMENT OF CANCER” (SINOVEDA CANADA INC., priority 2023, published 2026)
